Numbers after ± are expanded uncertainties.
Conditions: 101.33 kPa, Liquid; for viscosity: Concentric cylinders viscometry; for electrical conductivity: Direct current cell with electrodes

CCCC[N+]1(C)CCCC1.O=S(=O)([N-]S(=O)(=O)C(F)(F)F)C(F)(F)F
Conditions	electrical conductivity [S/m]	mass density [kg/m3]	viscosity [mPa·s]
293.15 K	–	1399 ± 1.1	–
298.15 K	0.277 ± 0.0036	1394.57 ± 1.1	76.73 ± 3.2
299.15 K	0.288 ± 0.0037	–	–
300.15 K	0.3 ± 0.0039	–	–
301.15 K	0.313 ± 0.0041	–	–
302.15 K	0.327 ± 0.0042	–	–
303.15 K	0.34 ± 0.0044	1390.02 ± 1.1	61.67 ± 2.6
304.15 K	0.354 ± 0.0045	–	–
305.15 K	0.368 ± 0.0047	–	–
306.15 K	0.383 ± 0.0048	–	–
307.15 K	0.398 ± 0.005	–	–
308.15 K	0.412 ± 0.0051	1385.48 ± 1.1	50.49 ± 2.1
309.15 K	0.427 ± 0.0052	–	–
310.15 K	0.443 ± 0.0054	–	–
311.15 K	0.459 ± 0.0056	–	–
312.15 K	0.475 ± 0.0058	–	–
313.15 K	0.492 ± 0.006	1380.93 ± 1.1	41.73 ± 1.7
314.15 K	0.509 ± 0.0062	–	–
315.15 K	0.527 ± 0.0063	–	–
316.15 K	0.544 ± 0.0065	–	–
317.15 K	0.562 ± 0.0067	–	–
318.15 K	0.58 ± 0.0068	1376.28 ± 1.1	34.67 ± 1.4
319.15 K	0.598 ± 0.007	–	–
320.15 K	0.616 ± 0.0072	–	–
321.15 K	0.635 ± 0.0075	–	–
322.15 K	0.655 ± 0.0076	–	–
323.15 K	0.673 ± 0.0078	1371.64 ± 1.1	29.48 ± 1.2
324.15 K	0.694 ± 0.008	–	–
325.15 K	0.713 ± 0.0081	–	–
326.15 K	0.733 ± 0.0084	–	–
327.15 K	0.754 ± 0.0086	–	–
328.15 K	0.775 ± 0.0088	1366.9 ± 1.1	25.43 ± 1
329.15 K	0.795 ± 0.009	–	–
330.15 K	0.816 ± 0.0093	–	–
331.15 K	0.839 ± 0.0094	–	–
332.15 K	0.86 ± 0.0097	–	–
333.15 K	0.884 ± 0.01	1362.2 ± 1.1	21.9 ± 0.89
334.15 K	0.911 ± 0.011	–	–
335.15 K	0.938 ± 0.011	–	–
336.15 K	0.965 ± 0.011	–	–
337.15 K	0.993 ± 0.011	–	–
338.15 K	1.02 ± 0.012	1357.35 ± 1.1	19.16 ± 0.78
339.15 K	1.05 ± 0.012	–	–
340.15 K	1.08 ± 0.012	–	–
341.15 K	1.11 ± 0.012	–	–
342.15 K	1.13 ± 0.013	–	–
343.15 K	1.17 ± 0.013	1352.44 ± 1.1	16.82 ± 0.69
344.15 K	1.2 ± 0.013	–	–
345.15 K	1.23 ± 0.014	–	–
346.15 K	1.26 ± 0.014	–	–
347.15 K	1.29 ± 0.014	–	–
348.15 K	1.32 ± 0.015	1347.48 ± 1	14.8 ± 0.6
349.15 K	1.36 ± 0.015	–	–
350.15 K	1.4 ± 0.016	–	–
351.15 K	1.43 ± 0.016	–	–
352.15 K	1.46 ± 0.016	–	–
353.15 K	1.49 ± 0.016	1342.48 ± 1	13.24 ± 0.54

CCCC[n+]1ccn(C)c1.O=S(=O)([N-]S(=O)(=O)C(F)(F)F)C(F)(F)F
Conditions	electrical conductivity [S/m]	mass density [kg/m3]	viscosity [mPa·s]
293.15 K	–	1439.27 ± 1.2	–
298.15 K	0.402 ± 0.0051	1434.3 ± 1.2	50.05 ± 2.1
299.15 K	0.417 ± 0.0053	–	–
300.15 K	0.435 ± 0.0056	–	–
301.15 K	0.453 ± 0.0057	–	–
302.15 K	0.47 ± 0.0059	–	–
303.15 K	0.488 ± 0.0061	1429.4 ± 1.2	41.24 ± 1.7
304.15 K	0.506 ± 0.0063	–	–
305.15 K	0.524 ± 0.0064	–	–
306.15 K	0.543 ± 0.0066	–	–
307.15 K	0.562 ± 0.0068	–	–
308.15 K	0.581 ± 0.007	1424.57 ± 1.2	33.65 ± 1.4
309.15 K	0.602 ± 0.0073	–	–
310.15 K	0.622 ± 0.0075	–	–
311.15 K	0.643 ± 0.0077	–	–
312.15 K	0.664 ± 0.0078	–	–
313.15 K	0.684 ± 0.008	1419.61 ± 1.2	28.28 ± 1.2
314.15 K	0.706 ± 0.0084	–	–
315.15 K	0.729 ± 0.0086	–	–
316.15 K	0.751 ± 0.0087	–	–
317.15 K	0.773 ± 0.0089	–	–
318.15 K	0.795 ± 0.0092	1414.67 ± 1.2	23.91 ± 0.98
319.15 K	0.82 ± 0.0094	–	–
320.15 K	0.842 ± 0.0096	–	–
321.15 K	0.866 ± 0.0099	–	–
322.15 K	0.891 ± 0.011	–	–
323.15 K	0.921 ± 0.011	1409.65 ± 1.2	20.64 ± 0.84
324.15 K	0.949 ± 0.011	–	–
325.15 K	0.983 ± 0.011	–	–
326.15 K	1.01 ± 0.012	–	–
327.15 K	1.04 ± 0.012	–	–
328.15 K	1.07 ± 0.013	1404.64 ± 1.2	17.9 ± 0.73
329.15 K	1.1 ± 0.013	–	–
330.15 K	1.14 ± 0.013	–	–
331.15 K	1.17 ± 0.014	–	–
332.15 K	1.21 ± 0.014	–	–
333.15 K	1.24 ± 0.014	1399.6 ± 1.1	15.51 ± 0.63
334.15 K	1.27 ± 0.014	–	–
335.15 K	1.31 ± 0.015	–	–
336.15 K	1.34 ± 0.015	–	–
337.15 K	1.38 ± 0.015	–	–
338.15 K	1.41 ± 0.016	1394.43 ± 1.1	13.71 ± 0.56
339.15 K	1.45 ± 0.016	–	–
340.15 K	1.48 ± 0.017	–	–
341.15 K	1.52 ± 0.017	–	–
342.15 K	1.55 ± 0.017	–	–
343.15 K	1.59 ± 0.018	1389.16 ± 1.1	12.09 ± 0.49
344.15 K	1.63 ± 0.018	–	–
345.15 K	1.67 ± 0.018	–	–
346.15 K	1.71 ± 0.019	–	–
347.15 K	1.74 ± 0.019	–	–
348.15 K	1.78 ± 0.019	1383.85 ± 1.1	10.78 ± 0.44
349.15 K	1.82 ± 0.02	–	–
350.15 K	1.86 ± 0.02	–	–
351.15 K	1.9 ± 0.02	–	–
352.15 K	1.94 ± 0.021	–	–
353.15 K	1.98 ± 0.021	1378.53 ± 1.1	9.69 ± 0.39

From the NIST ThermoML archive (doi:10.1021/je2010837)
